The values below come from patent US7378397B2 (The Provost, Fellows and Scholars of the College of the …, priority 2000, dated 2008).

This assay concerns Male Wistar rats. Put plainly: behavioural effects (activity score, WDS, locomotion) after i.p. administration. Type of assay: in vivo, rat. The protocol:
Methods: Behavioural studies were conducted using experimentally naïve Male Wistar rats (200-250 g) maintained in a temperature controlled (21° C.), artificially-lighted (12 hr light cycle) room with free access to food and water. Behavioural effects of TRH±TRH-DE inhibitor following intraperitoneal (i.p.) administration: On the day of the experiment, animals were singly housed in perspex cages (30×20×20 cm) and allowed to acclimatize for 20 min. After this period, two baseline measurements of behaviour were made at 10 and 5 min prior to administration of drugs. […] Animals were then observed by two independent observers who were blind to treatment, every 5 min for 30 sec. Blocks of 5 animals were treated at a time, 1 per drug group. Blocks were repeated 5 times. The occurrence of individual behaviours were noted using a behavioural check list, which included grooming, locomotion, rearing, chewing, sniffing, head weave, tail elevation, and/or straub tail and WDS behaviours. These behaviours were summed to yield an overall activity count. Animals were videotaped for separate subsequent analysis of WDS. All WDS behaviours occurring during each 5 min interval after drug administration were counted. The statistical significance of differences between behavioural effects of treatments was determined using the Student's t-test or ANOVA, followed by a post-ANOVA test, as indicated. Radioligand binding data were analysed using non-linear curve fitting software (Prism, Graph Pad Software Inc.). IC50 values calculated from competition experiments were converted to Ki values using the Cheng-Prusoff (41) equation Ki=IC50/(1+L/Kd), where L=ligand concentration and Kd=the apparent dissociation constant for [^3[…].

Where a SMILES comes first, the peptide text is derived from it. [ ]: non-standard residue; d: D form. pGlu = O=C1CC[C@@H](C(=O)O)N1

Turning to `NC(=O)C[C@H](NC(=O)[C@@H]1CCC(=O)N1)C(=O)N1CCC[C@H]1C(N)=O` [Glp-Asn-ProNH2, pyroglutamyl-asparaginyl-prolineamide] ([pGlu]-Asn-Pro-NH2), under “i.p. administration, 10 mg/kg”, the increase in locomotion entry is on record as “not detected”. Also, the “rat activity scores compared with saline” value (i.p., 10 mg/kg each, 40 min post injection) is “significantly increased activity counts”.
